Biological target: T1, Dimer of Gag-Pol polyprotein [501-599] (Human immunodeficiency virus 1, UniProt P03367)
T1 construct: 501-599
Test: Protease Inhibition Assay
Procedure: HIV-1 protease activity was measured by a continuous fluorometric assay. The proteolytic activity can be monitored by the increase in fluorescence intensity, and the protease products were analyzed by HPLC. IC50 values were determined from a dose-response curve, whereas Ki values were obtained by fitting initial rates to a tight-binding inhibition equation.

CC(C)CN(C(CO)CCCCNC(=O)[C@@H](NC(=O)c1ccc(=O)[nH]c1)C(c1ccccc1)c1ccccc1)S(=O)(=O)c1ccc(N)cc1 (stereo partly drawn) [(2S)-N-[(5R)-5-[(4-aminobenzene)(2-methylpropyl)sulfonamido]-6-hydroxyhexyl]-2-[(6-hydroxypyridin-3-yl)formamido]-3,3-diphenylpropanamide]
IC50: 0.5 nM
Ki: 0.4 nM

CC(C)CN(C(CO)CCCCNC(=O)[C@@H](NC(=O)c1ccc(O)c([N+](=O)[O-])c1)C(c1ccccc1)c1ccccc1)S(=O)(=O)c1ccc(N)cc1 (stereo partly drawn) [(2S)-N-[(5R)-5-[(4-aminobenzene)(2-methylpropyl)sulfonamido]-6-hydroxyhexyl]-2-[(4-hydroxy-3-nitrophenyl)formamido]-3,3-diphenylpropanamide]
IC50: 0.56 nM
Ki: 0.48 nM

CC(C)CN(C(CO)CCCCNC(=O)[C@@H](NC(=O)c1cccnc1)C(c1ccccc1)c1ccccc1)S(=O)(=O)c1ccc(N)cc1 (stereo partly drawn) [(2S)-N-[(5R)-5-[(4-aminobenzene)(2-methylpropyl)sulfonamido]-6-hydroxyhexyl]-3,3-diphenyl-2-(pyridin-3-ylformamido)propanamide]
IC50: 0.68 nM
Ki: 0.55 nM

Cc1ccc(C(=O)N[C@H](C(=O)NCCCCC(CO)N(CC(C)C)S(=O)(=O)c2ccc(N)cc2)C(c2ccccc2)c2ccccc2)cn1 (stereo partly drawn) [(2S)-N-[(5R)-5-[(4-aminobenzene)(2-methylpropyl)sulfonamido]-6-hydroxyhexyl]-2-[(6-methylpyridin-3-yl)formamido]-3,3-diphenylpropanamide]
IC50: 0.4 nM
Ki: 0.5 nM

CC(C)CN(C(CO)CCCCNC(=O)[C@@H](NC(=O)OCc1ccccn1)C(c1ccccc1)c1ccccc1)S(=O)(=O)c1ccc(N)cc1 (stereo partly drawn) [pyridin-2-ylmethyl N-[(1S)-1-{[(5R)-5-[(4-aminobenzene)(2-methylpropyl)sulfonamido]-6-hydroxyhexyl]carbamoyl}-2,2-diphenylethyl]carbamate]
IC50: 0.12 nM
Ki: 0.4 nM

CC(C)CN(C(CO)CCCCNC(=O)[C@@H](NC(=O)OC(C)(C)C)C(c1ccccc1)c1ccccc1)S(=O)(=O)c1ccc(N)cc1 (stereo partly drawn) [tert-butyl N-[(1S)-1-{[(5R)-5-[(4-aminobenzene)(2-methylpropyl)sulfonamido]-6-hydroxyhexyl]carbamoyl}-2,2-diphenylethyl]carbamate]
IC50: 0.4 nM
Ki: 0.5 nM

Cc1ncccc1C(=O)N[C@H](C(=O)NCCCCC(CO)N(CC(C)C)S(=O)(=O)c1ccc(N)cc1)C(c1ccccc1)c1ccccc1 (stereo partly drawn) [(2S)-N-[(5R)-5-[(4-aminobenzene)(2-methylpropyl)sulfonamido]-6-hydroxyhexyl]-2-[(2-methylpyridin-3-yl)formamido]-3,3-diphenylpropanamide]
IC50: 0.4 nM
Ki: 0.4 nM

COC(=O)N[C@@H](Cc1ccccc1)C(=O)NCCCCC(CO)N(CC(C)C)S(=O)(=O)c1ccc(N)cc1 (stereo partly drawn) [methyl N-[(1S)-1-{[(5R)-5-[(4-aminobenzene)(2-methylpropyl)sulfonamido]-6-hydroxyhexyl]carbamoyl}-2-phenylethyl]carbamate]
IC50 (pH 4.7, 30 °C): 12 nM

CC(C)CN(C(CO)CCCCNC(=O)[C@@H](NC(=O)c1ccc[nH]1)C(c1ccccc1)c1ccccc1)S(=O)(=O)c1ccc(N)cc1 (stereo partly drawn) [(2S)-N-[(5R)-5-[(4-aminobenzene)(2-methylpropyl)sulfonamido]-6-hydroxyhexyl]-3,3-diphenyl-2-(1H-pyrrol-2-ylformamido)propanamide]
IC50: 0.43 nM
Ki: 0.47 nM

CC(C)CN(C(CO)CCCCNC(=O)[C@@H](NC(=O)OCc1ccncc1)C(c1ccccc1)c1ccccc1)S(=O)(=O)c1ccc(N)cc1 (stereo partly drawn) [pyridin-4-ylmethyl N-[(1S)-1-{[(5R)-5-[(4-aminobenzene)(2-methylpropyl)sulfonamido]-6-hydroxyhexyl]carbamoyl}-2,2-diphenylethyl]carbamate]
IC50: 0.39 nM
Ki: 0.02 nM

CC(C)CN(C(CO)CCCCNC(=O)[C@@H](NC(=O)OCc1cccnc1)C(c1ccccc1)c1ccccc1)S(=O)(=O)c1ccc(N)cc1 (stereo partly drawn) [pyridin-3-ylmethyl N-[(1S)-1-{[(5R)-5-[(4-aminobenzene)(2-methylpropyl)sulfonamido]-6-hydroxyhexyl]carbamoyl}-2,2-diphenylethyl]carbamate]
IC50: 0.48 nM
Ki: 0.36 nM

CC(C)CN(C(CO)CCCCNC(=O)[C@@H](NC(=O)c1ccccn1)C(c1ccccc1)c1ccccc1)S(=O)(=O)c1ccc(N)cc1 (stereo partly drawn) [(2S)-N-[(5R)-5-[(4-aminobenzene)(2-methylpropyl)sulfonamido]-6-hydroxyhexyl]-3,3-diphenyl-2-(pyridin-2-ylformamido)propanamide]
IC50: 0.46 nM
Ki: 0.44 nM

COC(=O)N[C@@H](Cc1ccc2ccccc2c1)C(=O)NCCCCC(CO)N(CC(C)C)S(=O)(=O)c1ccc(N)cc1 (stereo partly drawn) [methyl N-[(1S)-1-{[(5R)-5-[(4-aminobenzene)(2-methylpropyl)sulfonamido]-6-hydroxyhexyl]carbamoyl}-2-(naphthalen-2-yl)ethyl]carbamate]
IC50 (pH 4.7, 30 °C): 1.2 nM

CC(C)CN(C(CO)CCCCNC(=O)[C@@H](N)C(c1ccccc1)c1ccccc1)S(=O)(=O)c1ccc(N)cc1 (stereo partly drawn) [(2S)-2-amino-N-[(5R)-5-[(4-aminobenzene)(2-methylpropyl)sulfonamido]-6-hydroxyhexyl]-3,3-diphenylpropanamide]
IC50: 0.5 nM
Ki: 0.56 nM

COC(=O)N[C@H](C(=O)NCCCCC(CO)N(CC(C)C)S(=O)(=O)c1ccc(N)cc1)c1ccccc1 (stereo partly drawn) [methyl N-[(S)-{[(5R)-5-[(4-aminobenzene)(2-methylpropyl)sulfonamido]-6-hydroxyhexyl]carbamoyl}(phenyl)methyl]carbamate]
IC50 (pH 4.7, 30 °C): > 300 nM

COC(=O)N[C@@H](Cc1cccc2ccccc12)C(=O)NCCCCC(CO)N(CC(C)C)S(=O)(=O)c1ccc(N)cc1 (stereo partly drawn) [methyl N-[(1S)-1-{[(5R)-5-[(4-aminobenzene)(2-methylpropyl)sulfonamido]-6-hydroxyhexyl]carbamoyl}-2-(naphthalen-1-yl)ethyl]carbamate]
IC50 (pH 4.7, 30 °C): 1.2 nM

CC(C)CN(C(CO)CCCCNC(=O)[C@@H](NC(=O)N(C)C)C(c1ccccc1)c1ccccc1)S(=O)(=O)c1ccc(N)cc1 (stereo partly drawn) [(2S)-N-[(5R)-5-[(4-aminobenzene)(2-methylpropyl)sulfonamido]-6-hydroxyhexyl]-2-[(dimethylcarbamoyl)amino]-3,3-diphenylpropanamide]
IC50: 0.44 nM
Ki: 0.58 nM

COC(=O)N1Cc2ccccc2C=C1C(=O)NCCCCC(CO)N(CC(C)C)S(=O)(=O)c1ccc(N)cc1 (configuration not stated) [lysine sulfonamide analogue 8]
IC50 (pH 4.7, 30 °C): 130 nM

CC(C)CN(C(CO)CCCCNC(=O)[C@@H](NC(=O)c1ccc(O)cc1)C(c1ccccc1)c1ccccc1)S(=O)(=O)c1ccc(N)cc1 (stereo partly drawn) [(2S)-N-[(5R)-5-[(4-aminobenzene)(2-methylpropyl)sulfonamido]-6-hydroxyhexyl]-2-[(4-hydroxyphenyl)formamido]-3,3-diphenylpropanamide]
IC50: 0.53 nM
Ki: 0.47 nM

CC(C)CN(C(CO)CCCCNC(=O)[C@@H](NC(=O)Cc1cccnc1)C(c1ccccc1)c1ccccc1)S(=O)(=O)c1ccc(N)cc1 (stereo partly drawn) [(2S)-N-[(5R)-5-[(4-aminobenzene)(2-methylpropyl)sulfonamido]-6-hydroxyhexyl]-3,3-diphenyl-2-[1-(pyridin-3-yl)acetamido]propanamide]
IC50: 0.24 nM
Ki: 0.34 nM

COC(=O)N[C@@H](Cc1ccccc1-c1ccccc1)C(=O)NCCCCC(CO)N(CC(C)C)S(=O)(=O)c1ccc(N)cc1 (stereo partly drawn) [methyl N-[(1S)-1-{[(5R)-5-[(4-aminobenzene)(2-methylpropyl)sulfonamido]-6-hydroxyhexyl]carbamoyl}-2-(2-phenylphenyl)ethyl]carbamate]
IC50 (pH 4.7, 30 °C): 0.521 nM

CC(C)CN(C(CO)CCCCNC(=O)[C@@H](NC(=O)c1ncccc1O)C(c1ccccc1)c1ccccc1)S(=O)(=O)c1ccc(N)cc1 (stereo partly drawn) [(2S)-N-[(5R)-5-[(4-aminobenzene)(2-methylpropyl)sulfonamido]-6-hydroxyhexyl]-2-[(3-hydroxypyridin-2-yl)formamido]-3,3-diphenylpropanamide]
IC50: 0.9 nM
Ki: 0.7 nM

CC(C)CN(C(CO)CCCCNC(=O)[C@@H](NC(=O)C1CCCCC1)C(c1ccccc1)c1ccccc1)S(=O)(=O)c1ccc(N)cc1 (stereo partly drawn) [(2S)-N-[(5R)-5-[(4-aminobenzene)(2-methylpropyl)sulfonamido]-6-hydroxyhexyl]-2-(cyclohexylformamido)-3,3-diphenylpropanamide]
IC50: < 3.8 nM

CC(C)CN(C(CO)CCCCNC(=O)[C@@H](NC(=O)c1ccc(N)nc1)C(c1ccccc1)c1ccccc1)S(=O)(=O)c1ccc(N)cc1 (stereo partly drawn) [(2S)-N-[(5R)-5-[(4-aminobenzene)(2-methylpropyl)sulfonamido]-6-hydroxyhexyl]-2-[(6-aminopyridin-3-yl)formamido]-3,3-diphenylpropanamide]
IC50: 0.4 nM
Ki: 0.5 nM

CC(C)CN(C(CO)CCCCNC(=O)[C@@H](NC(=O)c1cccc(O)c1)C(c1ccccc1)c1ccccc1)S(=O)(=O)c1ccc(N)cc1 (stereo partly drawn) [(2S)-N-[(5R)-5-[(4-aminobenzene)(2-methylpropyl)sulfonamido]-6-hydroxyhexyl]-2-[(3-hydroxyphenyl)formamido]-3,3-diphenylpropanamide]
IC50: 0.4 nM
Ki: 0.4 nM

CC(C)CN(C(CO)CCCCNC(=O)[C@@H](NC(=O)c1ccc([N+](=O)[O-])c(O)c1)C(c1ccccc1)c1ccccc1)S(=O)(=O)c1ccc(N)cc1 (stereo partly drawn) [(2S)-N-[(5R)-5-[(4-aminobenzene)(2-methylpropyl)sulfonamido]-6-hydroxyhexyl]-2-[(3-hydroxy-4-nitrophenyl)formamido]-3,3-diphenylpropanamide]
IC50: 0.33 nM
Ki: 0.33 nM

COc1cc(C(=O)N[C@H](C(=O)NCCCCC(CO)N(CC(C)C)S(=O)(=O)c2ccc(N)cc2)C(c2ccccc2)c2ccccc2)ccc1O (stereo partly drawn) [(2S)-N-[(5R)-5-[(4-aminobenzene)(2-methylpropyl)sulfonamido]-6-hydroxyhexyl]-2-[(4-hydroxy-3-methoxyphenyl)formamido]-3,3-diphenylpropanamide]
IC50: 0.5 nM
Ki: 0.45 nM

Reference: BindingDB's records for doi:10.1016/j.bmcl.2006.04.011 (Ambrilia Biopharma, 2006)
